Measured values from ChEMBL document CHEMBL4033720, “Discovery of novel cyclic peptide inhibitors of dengue virus NS2B-NS3 protease with antiviral activity” (Bioorg Med Chem Lett, 2017).

Key:
[1] = Toxicity in BHK21 cells assessed a reduction in cell viability after 4 days by resazurin dye based method; parameters: species or system Mesocricetus auratus, BHK-21; conditions: hamster
dengue virus type 2 = assay: Antiviral activity against dengue virus 2 infected in BHK21 cells assessed as inhibition of virus-induced cytopathic effect after 4 days by resazurin dye based method; assay type: functional, cell-based; conditions: Dengue virus, BHK-21, 96 h; read-out: EC50
[2] = Stability assessed as dengue virus 2 NS2B-NS3 protease-mediated compound degradation at 200 uM in presence of […] incubated for 0 to 22.5 hrs by LC-MS method; assay type: ADME; conditions: dengue virus type 2, 200 µM
[3] = Inhibition of dengue virus 2 NS2B-NS3 protease pre-incubated for 10 mins before Boc-Gly-Arg-Arg-peptidyl-4-methylcoumaryl-7-amide substrate addition and measured after 2 hrs by fluorescence based assay; parameters: species or system dengue virus type 2
[4] = Stability assessed as dengue virus 2 NS2B-NS3 protease-mediated compound degradation at 200 uM in presence of 100 nM enzyme incubated for 24 hrs by LC-MS method; assay type: ADME; conditions: dengue virus type 2, 24 h
[5] = Stability assessed as dengue virus 2 NS2B-NS3 protease-mediated compound degradation at 200 uM in presence of […] incubated for 22.5 hrs by LC-MS method; assay type: ADME; conditions: dengue virus type 2, 22.5 h

C[C@@H]1NC(=O)[C@H](CCCCN)NC(=O)[C@H](CCCNC(=N)N)NC(=O)[C@H](CCCNC(=N)N)NC(=O)[C@@H](CCCNC(=N)N)NC(=O)[C@@H](Cc2ccccc2)NC(=O)[C@H](Cc2cccc3ccccc23)NC(=O)[C@H](CCc2ccccc2)NC1=O
CC50 at 96 h [1]: 134 µM | EC50 (dengue virus type 2): 11.8 µM | Stability [2]: Unstable | IC50 [3]: 1.7 µM | Stability [4]: Stable

C[C@@H]1NC[C@H](CCCCN)NC(=O)[C@H](CCCNC(=N)N)NC(=O)[C@H](CCCNC(=N)N)NC(=O)[C@@H](CCCNC(=N)N)NC(=O)[C@@H](Cc2ccccc2)NC(=O)[C@H](Cc2cccc3ccccc23)NC(=O)[C@H](CCc2ccccc2)NC1=O
CC50 at 96 h [1]: 129 µM | Stability [5]: Stable | EC50 (dengue virus type 2): 11.4 µM | IC50 [3]: 2.1 µM
